From patent US9708368B2, “Linear peptide antibiotics” (priority 2012, dated 2017)
In brackets after ≈: the same amount, converted by molar mass. Where two headings read alike, the source gives them in different places. Square brackets hold non-standard residues; d marks the D form. Peptide text beside a SMILES is read from it. * marks the point of attachment. ξ: configuration not given here. Biphenylcarbonyl(4'-Bu) = CCCCc1ccc(-c2ccc(C(=O)*)cc2)cc1; Benzoyl(4-hexyl) = CCCCCCc1ccc(C(=O)*)cc1; X5 = C[C@H](N*)B1OC2C3CCC(C3(C)C)C2(C)O1; NMeThr(3ξ) = CN[C@H](C(=O)O)C(C)O; Myristoyl = CCCCCCCCCCCCCC(=O)*; NMeE = CN[C@@H](CCC(=O)O)C(=O)O; Thr(3ξ) = CC(O)[C@H](N)C(=O)O; NMeK = CN[C@@H](CCCCN)C(=O)O; Decanoyl = CCCCCCCCCC(=O)*; boroAla = C[C@H](N*)B(O)O; Dab = NCC[C@H](N)C(=O)O; boroGly = OB(O)CN*; ξP = O=C(O)C1CCCN1; βAla = NCCC(=O)O; ξA = CC(N)C(=O)O

Assays:
[1] = system: Methicillin Resistant Staphylococcus aureus strain USA 300 (NRS384)
Description: (§1) In vitro antimicrobial activity of each compound was determined by measuring minimal inhibitor concentrations (MICs) using the broth micro-dilution technique as approved by the Clinical and Laboratory Standards Institute (CLSI). […] Cells were inoculated onto Trypyticase Soy Agar or Luria Agar containing 16 ng/ml of anhydrotetracycline respectively and grown at 35° C. for 20 hours. Inocula suspensions were made by scraping cells into 1 mL of testing media (cation adjusted Mueller Hinton Broth supplemented with 0.002% v/v Tween-80) and diluting to a final OD600 nm of 0.01.
(§2) Test compounds were prepared in DMSO at a concentration of 10 mg/ml. […] Inocula suspensions were added to the two fold serial dilutions of test compounds to a final density of OD OD600 nm of 0.0005 and incubated stationary at 35° C. for 22 hours, after which the plates were examined visually.

[2] = system: Escherichia coli MC4100 IMP-4213 in which transcription of the SPase encoding gene is under control of a tetracycline inducible promoter; conditions: Method A; E. coli MC4100 IMP-4213 with decreased SPase expression; 35° C., 22 hours
Description: as §1, §2

S. aureus SPase [3] = target: T1, S. aureus SPase (Staphylococcus aureus, UniProt P0A070); test: biochemical
T1 sequence (P0A070 whole entry): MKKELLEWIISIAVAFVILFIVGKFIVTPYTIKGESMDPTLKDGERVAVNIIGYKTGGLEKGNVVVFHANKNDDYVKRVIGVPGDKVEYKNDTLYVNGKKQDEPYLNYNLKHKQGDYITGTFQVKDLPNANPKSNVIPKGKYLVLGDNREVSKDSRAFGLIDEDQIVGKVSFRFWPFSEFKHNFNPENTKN
Description: (§3) Full length His-tagged S. aureus SPase protein was expressed similarly from E. coli BL21(DE3) containing the plasmid pCDF1-SaSpsB and purified similarly to the E. coli protein with the following exceptions. […] Protein purity was judged to exceed 95% by visual inspection of SDS-PAGE followed by Comassie staining. All protein concentrations were determined by BCA assay.
(§4) Reactions were initiated by the addition of substrate to a final concentration of 20 μM. Reaction progress was monitored by measuring the increase in fluorescence signal (excitation at 314 nm, emission at 416 nm) using a SpectraMax M2 fluorescence microplate reader. […] Three-folder serial dilutions of test compounds, starting at 10 μM, were prepared in enzyme mix solution and incubated at room temperature for 10 minutes. Following this incubation, fluorogenic substrate was added to a final concentration of 20 μM and the increase in fluorescence, corresponding to substrate cleavage, was monitored continuously at room temperature for 1 hour. Initial reaction rates were calculated based on the rate of increase in fluorescence during the reaction. Reaction rates were plotted as a function of compound concentration, and IC50 values are determined nonlinear regression analysis (SoftMaxPro 5.4, Molecular Devices™) of the sigmoidal dose-response curve.

E. coli SPase = E. coli SPase (Escherichia coli, UniProt P00803); test: Biochemical SPase activity assay (fluorogenic peptide substrate), E. coli enzyme
Chain of E. coli SPase (P00803 whole entry): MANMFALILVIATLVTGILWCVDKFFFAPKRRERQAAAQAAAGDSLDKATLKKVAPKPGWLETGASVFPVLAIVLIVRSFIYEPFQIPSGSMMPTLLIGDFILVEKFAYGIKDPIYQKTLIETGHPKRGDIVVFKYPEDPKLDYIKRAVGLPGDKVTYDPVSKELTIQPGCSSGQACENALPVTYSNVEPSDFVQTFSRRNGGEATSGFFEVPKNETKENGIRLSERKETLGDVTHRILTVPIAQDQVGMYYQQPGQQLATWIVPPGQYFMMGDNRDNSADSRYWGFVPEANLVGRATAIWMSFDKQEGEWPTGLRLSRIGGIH

S. aureus SPase [4] = target: T1, S. aureus SPase; conditions: read-out: IC 50 (nM) S. aureus
Description: as §3, §4

[5] = Method A, MRSA USA 300 (NRS384), 35° C., 22 hours

Row | SMILES | MIC (μg/mL) S. aureus [1, 5] | MIC (μg/mL) E. coli [2] | IC50 (S. aureus SPase [3]) | IC50 (E. coli SPase) | MIC (μg/mL) S. aureus ([1]; USA 300, 22 h) | IC50 (S. aureus SPase [4]) | IC50 (E. coli SPase; read-out: IC 50 (nM) E. coli, E. coli SPase 2.5 nM, substrate 20 μM, 10 minutes pre-incubation)
1 | CCCCCCCCCC(=O)N[C@@H](CC(C)C)C(=O)N[C@H](C(=O)N1CCC[C@@H]1C(=O)N[C@H](C(=O)N[C@@H](C)C(=O)N[C@@H](Cc1ccc(O)cc1)C(=O)NC(C)C=O)C(C)O)C(C)O (stereo partly shown) [Compound 109] (Decanoyl-L[Thr(3ξ)][dP][Thr(3ξ)]AY[ξA]-aldehyde) | >64 µg/mL | >64 µg/mL | 4900 nM |  |  |  | 
2 | CCCCc1ccc(-c2ccc(C(=O)N[C@H](CO)C(=O)N[C@H](C)C(=O)NCC(=O)N[C@H](C(=O)N[C@@H](C)C(=O)N[C@@H](CC(N)=O)C(=O)NCB(O)O)C(C)O)cc2)cc1 (stereo partly shown) [Compound 115] ({Biphenylcarbonyl(4'-Bu)}-[dS][dA]G[Thr(3ξ)]AN-boroGly) | >64 µg/mL | >64 µg/mL | 170 nM | 1000 nM |  |  | 
3 | CCCCCCc1ccc(C(=O)N[C@H](CO)C(=O)N[C@H](C)C(=O)NCC(=O)N(C)[C@H](C(=O)N[C@@H](C)C(=O)N[C@@H](CC(N)=O)C(=O)NCB(O)O)C(C)O)cc1 (stereo partly shown) [Compound 124] ({Benzoyl(4-hexyl)}-[dS][dA]G[NMeThr(3ξ)]AN-boroGly) | >64 µg/mL | >64 µg/mL | 83 nM | 810 nM |  |  | 
4 | CCCCCCc1ccc(C(=O)N[C@H](CO)C(=O)N[C@H](C)C(=O)NCC(=O)N(C)[C@H](C(=O)N[C@@H](C)C(=O)N[C@@H](CC(N)=O)C(=O)NCC=O)C(C)O)cc1 (stereo partly shown) [Compound 101] ({Benzoyl(4-hexyl)}-[dS][dA]G[NMeThr(3ξ)]ANG-aldehyde) | >64 µg/mL | >64 µg/mL | 86 nM | 11000 nM |  |  | 
5 | CCCCCCCCCCCCCC(=O)N[C@H](CO)C(=O)N[C@H](C)C(=O)NCC(=O)N(C)[C@H](C(=O)N[C@@H](C)C(=O)N[C@@H](CC(C)C)C(=O)NCB(O)O)C(C)O (stereo partly shown) [Compound 122] (Myristoyl-[dS][dA]G[NMeThr(3ξ)]AL-boroGly) | 40 µg/mL (≈ 50 µM) | >64 µg/mL | 7.6 nM | 1500 nM |  |  | 
6 | CCCCc1ccc(-c2ccc(C(=O)N[C@H](CO)C(=O)N[C@H](C)C(=O)N3CCC[C@H]3C(=O)N[C@H](C(=O)N[C@@H](C)C(=O)N[C@@H](CC(N)=O)C(=O)NCB(O)O)C(C)O)cc2)cc1 (stereo partly shown) [Compound 116] ({Biphenylcarbonyl(4'-Bu)}-[dS][dA]P[Thr(3ξ)]AN-boroGly) | >64 µg/mL | >64 µg/mL | 38 nM | 310 nM |  |  | 
7 | CCCCCCCCCC(=O)N[C@@H](CC(C)C)C(=O)N[C@H](C(=O)N1CCC[C@@H]1C(=O)N[C@H](C(=O)N[C@@H](C)C(=O)N[C@@H](Cc1ccc(O)cc1)C(=O)NC(C)C(=O)C(=O)NC)C(C)O)C(C)O (mixture of isomers) [Compound 111] | >64 µg/mL | >64 µg/mL | 18000 nM | 4900 nM |  |  | 
8 | CCCCc1ccc(-c2ccc(C(=O)NCCC(=O)N[C@@H](CCCCN)C(=O)N[C@H](C(=O)N[C@@H](C)C(=O)N[C@@H](CC(N)=O)C(=O)NCB(O)O)C(C)O)cc2)cc1 (stereo partly shown) [Compound 118] ({Biphenylcarbonyl(4'-Bu)-βAla}-K[Thr(3ξ)]AN-boroGly) | 0.71 µg/mL (≈ 0.891 µM) | 11 µg/mL (≈ 13.8 µM) | 9.4 nM | 1100 nM |  |  | 
9 | CCCCCCCCCC(=O)N[C@@H](CC(C)C)C(=O)N[C@H](C(=O)N1CCC[C@@H]1C(=O)N[C@H](C(=O)N[C@@H](C)C(=O)N[C@@H](Cc1ccc(O)cc1)C(=O)NCB(O)O)C(C)O)C(C)O (stereo partly shown) [Compound 128] (Decanoyl-L[Thr(3ξ)][dP][Thr(3ξ)]AY-boroGly) | >64 µg/mL | >64 µg/mL | 670 nM | 3000 nM |  |  | 
10 | CCCCCCCCCCCCCC(=O)N[C@@H](CC(C)C)C(=O)N[C@H](C(=O)N1CCC[C@@H]1C(=O)N[C@H](C(=O)N[C@@H](C)C(=O)N[C@@H](CC(N)=O)C(=O)NC(C)C=O)C(C)O)C(C)O (stereo partly shown) [Compound 108] (Myristoyl-L[Thr(3ξ)][dP][Thr(3ξ)]AN[ξA]-aldehyde) | 64 µg/mL (≈ 72.6 µM) | >64 µg/mL | 2100 nM | 20000 nM |  |  | 
11 | CCCCc1ccc(-c2ccc(C(=O)N[C@H](CO)C(=O)N[C@H](C)C(=O)NCC(=O)N(C)[C@@H](CCC(=O)O)C(=O)N[C@@H](C)C(=O)N[C@@H](CC(N)=O)C(=O)NCB(O)O)cc2)cc1 [Compound 119] ({Biphenylcarbonyl(4'-Bu)}-[dS][dA]G[NMeE]AN-boroGly) | >64 µg/mL | >64 µg/mL | 59 nM | 290 nM |  |  | 
12 | CCCCCCCCCCCCCC(=O)N[C@H](CO)C(=O)N[C@H](C)C(=O)NCC(=O)N(C)[C@H](C(=O)N[C@@H](C)C(=O)N[C@@H](CC(C)C)C(=O)NC(C)C(=O)C(=O)NC)C(C)O (mixture of isomers) [Compound 110] |  | >64 µg/mL | 150 nM |  | >64 µg/mL |  | 
13 | CCCCCCc1ccc(C(=O)N[C@H](CO)C(=O)N[C@H](C)C(=O)NCC(=O)N(C)[C@H](C(=O)N[C@@H](C)C(=O)N[C@@H](CC(C)C)C(=O)NCC=O)C(C)O)cc1 (stereo partly shown) [Compound 102] ({Benzoyl(4-hexyl)}-[dS][dA]G[NMeThr(3ξ)]ALG-aldehyde) | >64 µg/mL | >64 µg/mL | 9.7 nM | 18000 nM |  |  | 
14 | CCCCc1ccc(-c2ccc(C(=O)N[C@@H](CCN)C(=O)N[C@H](C(=O)N[C@@H](C)C(=O)N[C@@H](CCCCN)C(=O)N[C@@H](C)B(O)O)[C@@H](C)O)cc2)cc1 [Compound 238] ({Biphenylcarbonyl(4'-Bu)}-[Dab]TAK-boroAla) |  |  |  |  |  | 33 nM | 4.6 nM
15 | CCCCCCCCCCCCCC(=O)N[C@@H](CC(C)C)C(=O)N[C@H](C(=O)N1CCC[C@@H]1C(=O)N[C@H](C(=O)N[C@@H](C)C(=O)N[C@@H](Cc1ccc(O)cc1)C(=O)NCC=O)C(C)O)C(C)O (stereo partly shown) [Compound 105] (Myristoyl-L[Thr(3ξ)][dP][Thr(3ξ)]AYG-aldehyde) | >64 µg/mL | >64 µg/mL |  |  |  |  | 
16 | CCCCc1ccc(-c2ccc(C(=O)N[C@H](CO)C(=O)N[C@H](C)C(=O)NCC(=O)N3CCCC3C(=O)N[C@@H](C)C(=O)N[C@@H](CC(N)=O)C(=O)NCB(O)O)cc2)cc1 (stereo partly shown) [Compound 117] ({Biphenylcarbonyl(4'-Bu)}-[dS][dA]G[ξP]AN-boroGly) | >64 µg/mL | >64 µg/mL | 350 nM | 300 nM |  |  | 
17 | CCCCCCCCCCCCCC(=O)N[C@H](CO)C(=O)N[C@H](C)C(=O)NCC(=O)N(C)[C@H](C(=O)N[C@@H](C)C(=O)N[C@@H](CC(C)C)C(=O)N[C@@H](C)B1OC2C3CCC(C3(C)C)C2(C)O1)C(C)O (stereo partly shown) [Compound 123] (Myristoyl-[dS][dA]G[NMeThr(3ξ)]AL-X5) | 64 µg/mL (≈ 67.5 µM) | 25 µg/mL (≈ 26.4 µM) | 42 nM | 220 nM |  |  | 
18 | CCCCCCCCCCCCCC(=O)N[C@@H](CC(C)C)C(=O)N[C@H](C(=O)N1CCC[C@@H]1C(=O)N[C@H](C(=O)N[C@@H](C)C(=O)N[C@@H](Cc1ccc(O)cc1)C(=O)NC(C)C(=O)C(=O)NC)C(C)O)C(C)O (mixture of isomers) [Compound 112] | >64 µg/mL | >64 µg/mL | 3400 nM | 31000 nM |  |  | 
19 | CCCCc1ccc(-c2ccc(C(=O)N[C@H](CO)C(=O)N[C@H](C)C(=O)NCC(=O)N(C)[C@@H](CCCCN)C(=O)N[C@@H](C)C(=O)N[C@@H](CC(N)=O)C(=O)NCB(O)O)cc2)cc1 [Compound 120] ({Biphenylcarbonyl(4'-Bu)}-[dS][dA]G[NMeK]AN-boroGly) | >64 µg/mL | 32 µg/mL (≈ 37.5 µM) | 100 nM | 1600 nM |  |  | 
